This series can be described thus: Fluorescence excitation and emission maxima of the probes. It counts as physicochemical. From the text: The probe of the present disclosure can selectively bind iNOS enzyme and produce a perceptible change in fluorescence upon binding.

In turn, `CN1c2cc3c(cc2C(CS(=O)(=O)[O-])=CC1(C)C)C(c1c(Cl)c(SCC(=O)NCCCCCC(=O)N2CCN(c4ccnc(-n5ccnc5)n4)C(CC(=O)NCc4ccc5c(c4)OCO5)C2)c(Cl)c(Cl)c1C(=O)O)=c1cc2c(cc1O3)=[N+](C)C(C)(C)C=C2CS(=O)(=O)O` (centres unmarked) [PIA-610, Pyrimidine Imidazole Alexa-Fluor-610] returned an emission wavelength of 630 nm and a maximum excitation wavelength of 610 nm.

Source of the values: US11591476B2, “In-vivo probe for real time longitudinal monitoring of inducible nitric-oxide synthase in living cells and animals” (priority 2016, dated 2023).
